System: HL-60 cells
Assay: Vitamin D3 antagonist action: inhibition of HL-60 cell differentiation induced by 1α,25-dihydroxyvitamine D3 (NBT reducing activity)
Type: cell-based
Details: Homo sapiens, HL-60, 96 h, inhibition of NBT reducing activity induced by 1×10^-8 M 1α,25-dihydroxyvitamine D3, 4 days
Excerpt: The Vitamin D3 Antagonist Action Determined by Using the Induction of HL-60 Cell Differentiation by 1α,25-dihydroxyvitamine D3 as an Indicator
(1) HL-60 cells that were purchased from a cell bank (Japanese Cancer Research Resources Bank, Cell No. JCRB0085) were used. The cells were maintained as a frozen preservation stock to prevent changes in cellular characteristics by subculture. The stock was thawed before starting the experiment, and the cells which subsequently initiated subculture were used. The cells with subcultivation approximately over one month to a half year were used for the experiment. The subcultivation was performed by first centrifuging and collecting cells in suspension culture, and then diluting the collected cells by approximately a factor of 100 to a concentration of 1×10^4 to 2×10^4 cells/ml in a fresh culture medium. An RPMI-1640 medium with 10% fetal bovine serum was used as the culture medium. […]
(3) The induction of nitroblue tetrazolium (hereinafter referred to as NBT) reducing activity was used as an indicator of the induction of HL-60 cell differentiation. The NBT reducing activity was measured according to the procedures described below. […]

SMILES: C=C1C(=O)OC(C[C@@H](C)[C@H]2CC[C@H]3/C(=C/C=C4/C[C@@H](O)C[C@H](O)C4=C)CCC[C@]23C)C1CCO (stereo partly drawn) [Compound No. 114a, 20(R)-(tetrahydro-3-methylene-2-furanone-4-(2-hydroxyethyl)-5-yl)methyl-9,10-secopregna-5(Z),7(E),10(19)-triene-1α,3β-diol]
- IC50: < 10 nM

From patent US9073885B2, “Vitamin D3 lactone derivatives” (Teijin Pharma Limited, priority 2003, dated 2015)
